# Experimental data as given in US20150038415A1, “PROCESS FOR THE MANUFACTURING OF A DRUG DELIVERY SYSTEM BASED ON A POLYMER COMPRISING A DISPERSED BIOACTIVE AGENT” (DSM IP Assets B.V., priority 2011, published 2015).
# “Also recorded” adds a separate entry of the source.
# System: Nb2 (rat lymphoma) cells
# Assay: Bioactivity of released rHGH by Nb2 cell proliferation assay
# Assay type: cell-based
# Experimental: Bioactivity of rHGH present in release samples was assessed by measuring its influence on the proliferation of Nb2 (rat lymphoma) cells.^1 1 Bozzola, M. et. al. Evaluation of growth hormone bioactivity using the Nb2 cell bioassay in children with growth disorders. J. Endocrinol Invest.1998, 21, 765-770
# The method used is described below:^2 2 Tanaka. T. et. al. A new sensitive and specific bioassay for lactogenic hormones: measurement of prolactin and growth hormone in human serum. J. Clin. Endocrinol. Metab.1980, 51, 1058-1063 […]
# Cells were then counted with a Guava Easycyte (Millipore) capillary cytometer using Viacount reagent (Millipore) to stain cells, according to the recommendations of the manufacturer. […]
# Samples originating from the release experiments were diluted in incubation medium to reach an expected (according to HPLC quantification) concentration of rHGH between 80 and 280 pg/mL(concentration range in which growth of Nb2 cells is rHGH concentration-dependent). […]
# After incubation, cells were stained with 50 uL Viacount reagent and viable cells were counted by capillary cytometry.
# Bioactivity of rHGH released from the fibers was measured through use of the cell-proliferation assay described above. Release samples were introduced to the cell culture medium and the effect of rHGH on cell proliferation was measured via cell counting with capillary cytometry.
substance,measurement,setting,value
"rHGH: lyophilized powder of recombinant human growth hormone, dispersed in PEA-III-Ac-Bz film cut into fibers",Bioactivity of rHGH released from the fibers (cell proliferation assay),"rHGH released from PEA-III-Ac-Bz fibers into release medium (PBS pH 7.4 with BSA and penicillin) at 37° C., Nb2 cells incubated 72 hours",retained; also recorded: bioactive; also recorded: retains its bioactivity
same,Cell response to release samples (cell counting with capillary cytometry),"release samples taken at 1 h, 3 h, 6 h, 24 h & 48 h from PEA-III-Ac-Bz fibers with approximately 1-2 wt % rHGH",positive cell response
